Results published in patent publication US12122816B2, “Long acting peptide tyrosine tyrosine (PYY) analogs and methods of use” (Intarcia Therapeutics, Inc., priority 2020, dated 2024).
Starred links: 1 amine or outer side, 2 acyl side, 3 side chain; linkers in the order of their positions; H or OH if unused. Non-standard residues stand in square brackets, D forms with d. Residues, ends and D or L forms follow the SMILES beside them. Groups on a side chain read outwards from the residue. *: point of attachment. C20 diacid = O=C(O)CCCCCCCCCCCCCCCCCCC(=O)*; γGlu = O=C(O)[C@H](CCC(=O)[*:2])N[*:1]; NMeY = CN[C@@H](Cc1ccc(O)cc1)C(=O)O

Columns and labels:
Test in all cases: NPY receptor functional assay (cAMP, HEK-CNG cells, ACTOne membrane potential dye)
Format in all cases: cell-based
human Y4 receptor = human Y4 receptor (Homo sapiens, UniProt P50391); settings: standard PP, species (human or rat) not given
From the text: (§1) The NPY family of G-protein coupled receptors include Y1, Y2, Y4, and Y5 in humans and rats. […] Following agonist binding, the receptor-G protein complex activates a downstream intracellular signaling cascade which leads to inhibition of adenylate cyclase and a reduction in intracellular cAMP levels.
(§2) HEK-CNG cells stably expressing the human or rat Y1, Y2, Y4 or Y5 receptors (Codex Biosolutions) were used to characterize the functional potency of peptide agonists using the ActOne™ membrane potential dye kit (Codex Biosolutions). In addition to each NPY receptor, each cell line encodes a proprietary exogenous Cyclic Nucleotide-Gated (CNG) channel (Codex Biosolutions). The channel is activated by elevated intracellular levels of cAMP, resulting in ion flux and cell membrane depolarization which can be detected with a calcium sensitive dye or fluorescent membrane potential (MP) dye. Cells were carried in growth media containing 90% DMEM, 10% FBS, 250 mcg/mL G418 and 1 mcg/mL puromycin for no more than 15 passages.
(§3) Prior to testing, cells were counted and dispensed at 14,000 cells per well (Y1, Y4 and Y5) or 28,000 cells per well (Y2) into black 384 well Poly-D-Lysine plates at 20 mcL per well. Covered plates were then incubated at room temperature for 30 minutes followed by an overnight incubation at 37° C. in 5% C02. The following day, media was removed and wells were washed once with 40 mcL Dulbecco's phosphate buffered saline. […] Ten microliters of experimental peptide or peptide standard was added in triplicate to wells and incubated for 50 minutes at room temperature in the dark. Following this incubation step, plates were read again as before (final read).
(§4) NPY receptor activation, leading to a reduction in intracellular cAMP levels, is detected as a decrease in isoproteranol induced fluorescent signal. Peptide standard and experimental values were initially transformed in excel using the formula: final read/initial read. Transformed values were then normalized to receptor specific standard values (1×10−13 M minimum and 1×10−7 M maximum) using the formula: (test value−standard minavg)/(standard maxavg−standard minavg)*100. […] Normalized data was analyzed from triplicate tests and used to estimate the EC50 for each test peptide on each receptor. Data was fit in GraphPad Prism software (v8.2.1) using a 3-parameter logistic curve model: Y=Bottom+(Top−Bottom)/(1+10^((LogEC50−X))). EC50 values were converted to pEC50 values using the formula: pEC50=−Log(EC50).

human Y2 receptor = molecular target: T1, human Y2 receptor (Homo sapiens, UniProt P49146); settings: NPY2R pEC50, HEK-CNG cells; standard PYY(3-36); species (human or rat) not given
T1 sequence (P49146 1-381): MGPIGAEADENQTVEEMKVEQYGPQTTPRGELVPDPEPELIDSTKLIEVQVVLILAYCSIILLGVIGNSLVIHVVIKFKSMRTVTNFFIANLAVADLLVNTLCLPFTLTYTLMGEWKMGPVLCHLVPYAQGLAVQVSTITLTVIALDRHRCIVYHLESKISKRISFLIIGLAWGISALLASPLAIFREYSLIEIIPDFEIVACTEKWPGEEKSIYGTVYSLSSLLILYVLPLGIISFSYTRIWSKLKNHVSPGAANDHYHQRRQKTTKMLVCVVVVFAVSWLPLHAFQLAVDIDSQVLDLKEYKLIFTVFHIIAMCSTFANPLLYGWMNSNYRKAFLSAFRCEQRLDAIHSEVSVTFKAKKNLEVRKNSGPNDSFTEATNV
From the text: as §1, §2, §3, §4

human Y5 receptor = molecular target: T2, human Y5 receptor (Homo sapiens, UniProt Q15761); settings: NPY5R pEC50, HEK-CNG cells; standard NPY; species (human or rat) not given
T2 sequence (Q15761 1-445): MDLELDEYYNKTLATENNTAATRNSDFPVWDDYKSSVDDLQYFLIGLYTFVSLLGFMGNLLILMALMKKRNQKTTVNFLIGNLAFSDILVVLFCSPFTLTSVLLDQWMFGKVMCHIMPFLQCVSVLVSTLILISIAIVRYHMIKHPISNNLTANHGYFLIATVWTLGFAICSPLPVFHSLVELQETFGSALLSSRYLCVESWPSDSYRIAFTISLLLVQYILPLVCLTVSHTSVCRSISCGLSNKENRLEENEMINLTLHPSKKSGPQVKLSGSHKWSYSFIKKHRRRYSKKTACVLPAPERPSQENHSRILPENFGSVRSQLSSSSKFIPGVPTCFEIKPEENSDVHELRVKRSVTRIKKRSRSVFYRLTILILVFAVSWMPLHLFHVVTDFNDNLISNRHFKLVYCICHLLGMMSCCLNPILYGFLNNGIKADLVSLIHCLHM
From the text: as §1, §2, §3, §4

human Y4 receptor, sequence (P50391 whole entry): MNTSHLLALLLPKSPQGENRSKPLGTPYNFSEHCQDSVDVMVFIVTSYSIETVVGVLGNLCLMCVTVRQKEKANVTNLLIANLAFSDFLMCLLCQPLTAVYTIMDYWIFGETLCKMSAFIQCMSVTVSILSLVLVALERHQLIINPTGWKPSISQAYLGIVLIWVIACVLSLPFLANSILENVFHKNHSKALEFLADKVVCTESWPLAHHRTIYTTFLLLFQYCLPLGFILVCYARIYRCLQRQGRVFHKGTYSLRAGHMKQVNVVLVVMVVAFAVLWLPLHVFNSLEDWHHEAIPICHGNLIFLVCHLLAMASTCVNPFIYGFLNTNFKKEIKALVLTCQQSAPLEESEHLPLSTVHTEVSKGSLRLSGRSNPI

| Structure (SMILES) | NPY4R pEC50 (human Y4 receptor) | EC50 (human Y2 receptor) | EC50 (human Y5 receptor) |
| --- | --- | --- | --- |
| CC(C)C[C@H](NC(=O)[C@H](Cc1ccc(O)cc1)NC(=O)[C@H](Cc1c[nH]cn1)NC(=O)[C@H](CCCNC(=N)N)NC(=O)[C@H](C)NC(=O)[C@H](CC(=O)O)NC(=O)[C@H](C)NC(=O)[C@H](Cc1ccc(O)cc1)NC(=O)[C@H](Cc1ccc(O)cc1)NC(=O)[C@H](CCCNC(=N)N)NC(=O)[C@H](CCCCNC(=O)CC[C@H](NC(=O)CC[C@H](NC(=O)CCCCCCCCCCCCCCCCCCC(=O)O)C(=O)O)C(=O)O)NC(=O)[C@H](Cc1c[nH]c2ccccc12)NC(=O)[C@H](CCC(=O)O)NC(=O)[C@H](CCC(=O)O)NC(=O)[C@@H]1CCCN1C(=O)[C@H](CO)NC(=O)[C@H](C)NC(=O)[C@H](CC(=O)O)NC(=O)[C@H](CCCCN)NC(=O)CNC(=O)[C@@H]1CCCN1C(=O)[C@H](C)NC(=O)[C@H](CCC(=O)O)NC(=O)[C@@H]1CCCN1C(=O)[C@H](CCCCN)NC(=O)[C@@H]1CCCN1)C(=O)N[C@@H](CC(N)=O)C(=O)N[C@@H](Cc1c[nH]c2ccccc12)C(=O)N[C@@H](CC(C)C)C(=O)N[C@H](C(=O)N[C@@H](CCCNC(=N)N)C(=O)N[C@@H](CCC(N)=O)C(=O)N[C@@H](CCCNC(=N)N)C(=O)N(C)[C@@H](Cc1ccc(O)cc1)C(N)=O)[C@@H](C)O [Compound A9] | inactive | 0.251 nM |  |
| CC(C)C[C@H](NC(=O)[C@H](CC(=O)O)NC(=O)[C@H](C)NC(=O)[C@H](Cc1ccc(O)cc1)NC(=O)[C@H](Cc1ccc(O)cc1)NC(=O)[C@H](CCCNC(=N)N)NC(=O)[C@H](CC(N)=O)NC(=O)[C@H](Cc1c[nH]c2ccccc12)NC(=O)[C@H](CCC(=O)O)NC(=O)[C@H](CCC(=O)O)NC(=O)[C@@H]1CCCN1C(=O)[C@H](CO)NC(=O)[C@H](C)NC(=O)[C@H](CC(=O)O)NC(=O)[C@H](CCCCN)NC(=O)CNC(=O)[C@@H]1CCCN1C(=O)[C@H](C)NC(=O)[C@H](CCC(=O)O)NC(=O)[C@@H]1CCCN1C(=O)[C@H](CCCCN)NC(=O)[C@@H]1CCCN1)C(=O)N[C@@H](CCCNC(=N)N)C(=O)N[C@@H](Cc1c[nH]cn1)C(=O)N[C@@H](Cc1ccc(O)cc1)C(=O)N[C@@H](CC(C)C)C(=O)N[C@@H](CC(N)=O)C(=O)N[C@@H](Cc1c[nH]c2ccccc12)C(=O)N[C@@H](CC(C)C)C(=O)N[C@H](C(=O)N[C@@H](CCCNC(=N)N)C(=O)N[C@@H](CCCCNC(=O)CC[C@H](NC(=O)CC[C@H](NC(=O)CCCCCCCCCCCCCCCCCCC(=O)O)C(=O)O)C(=O)O)C(=O)N[C@@H](CCCNC(=N)N)C(=O)N[C@@H](Cc1ccccc1)C(N)=O)[C@@H](C)O [Compound A50] | inactive |  |  |
| CC(C)C[C@H](NC(=O)[C@H](CC(=O)O)NC(=O)[C@H](C)NC(=O)[C@H](Cc1ccc(O)cc1)NC(=O)[C@H](Cc1ccc(O)cc1)NC(=O)[C@H](CCCNC(=N)N)NC(=O)[C@H](CC(N)=O)NC(=O)[C@H](Cc1c[nH]c2ccccc12)NC(=O)[C@H](CCC(=O)O)NC(=O)[C@H](CCC(=O)O)NC(=O)[C@@H]1CCCN1C(=O)[C@H](CO)NC(=O)[C@H](C)NC(=O)[C@H](CC(=O)O)NC(=O)[C@H](CCCCN)NC(=O)CNC(=O)[C@@H]1CCCN1C(=O)[C@H](C)NC(=O)[C@H](CCC(=O)O)NC(=O)[C@@H]1CCCN1C(=O)[C@H](CCCCN)NC(=O)[C@@H]1CCCN1)C(=O)N[C@@H](CCCNC(=N)N)C(=O)N[C@@H](Cc1c[nH]cn1)C(=O)N[C@@H](Cc1ccc(O)cc1)C(=O)N[C@@H](CC(C)C)C(=O)N[C@@H](CCCCNC(=O)CC[C@H](NC(=O)CC[C@H](NC(=O)CCCCCCCCCCCCCCCCCCC(=O)O)C(=O)O)C(=O)O)C(=O)N[C@@H](Cc1c[nH]c2ccccc12)C(=O)N[C@@H](CC(C)C)C(=O)N[C@H](C(=O)N[C@@H](CCCNC(=N)N)C(=O)N[C@@H](CCC(N)=O)C(=O)N[C@@H](CCCNC(=N)N)C(=O)N[C@@H](Cc1ccccc1)C(N)=O)[C@@H](C)O [Compound A51] | inactive |  |  |
| CC(C)C[C@H](NC(=O)[C@H](Cc1ccc(O)cc1)NC(=O)[C@H](Cc1c[nH]cn1)NC(=O)[C@H](CCCNC(=N)N)NC(=O)[C@H](C)NC(=O)[C@H](CC(=O)O)NC(=O)[C@H](C)NC(=O)[C@H](Cc1ccc(O)cc1)NC(=O)[C@H](Cc1ccc(O)cc1)NC(=O)[C@H](CCCNC(=N)N)NC(=O)[C@H](CC(N)=O)NC(=O)[C@H](CC(C)C)NC(=O)[C@H](CCC(=O)O)NC(=O)[C@H](CCC(=O)O)NC(=O)[C@@H]1CCCN1C(=O)[C@H](CO)NC(=O)[C@H](C)NC(=O)[C@H](CC(=O)O)NC(=O)[C@H](CCCCN)NC(=O)[C@H](CCCCNC(=O)CC[C@H](NC(=O)CC[C@H](NC(=O)CCCCCCCCCCCCCCCCCCC(=O)O)C(=O)O)C(=O)O)NC(=O)[C@@H]1CCCN1C(=O)[C@H](C)NC(=O)[C@H](CCC(=O)O)NC(=O)[C@@H]1CCCN1C(=O)[C@H](CCCCN)NC(=O)[C@@H]1CCCN1)C(=O)N[C@@H](CC(N)=O)C(=O)N[C@@H](Cc1c[nH]c2ccccc12)C(=O)N[C@@H](CC(C)C)C(=O)N[C@H](C(=O)N[C@@H](CCCNC(=N)N)C(=O)N[C@@H](CCC(N)=O)C(=O)N[C@@H](CCCNC(=N)N)C(=O)N(C)[C@@H](Cc1ccc(O)cc1)C(N)=O)[C@@H](C)O [Compound A63] (H-PKPEAPK([γGlu-γGlu-C20 diacid])KDASPEELNRYYADARHYLNWLTRQR[NMeY]-NH2; N-terminus assumed) | inactive | 31.6 nM |  |
| CC(C)C[C@H](NC(=O)[C@H](CC(=O)O)NC(=O)[C@H](CCCCN)NC(=O)[C@H](Cc1ccc(O)cc1)NC(=O)[C@H](Cc1ccc(O)cc1)NC(=O)[C@H](CCCNC(=N)N)NC(=O)[C@H](CC(N)=O)NC(=O)[C@H](Cc1c[nH]c2ccccc12)NC(=O)[C@H](CCC(=O)O)NC(=O)[C@H](CCCCNC(=O)CC[C@H](NC(=O)CC[C@H](NC(=O)CCCCCCCCCCCCCCCCCCC(=O)O)C(=O)O)C(=O)O)NC(=O)[C@@H]1CCCN1C(=O)[C@H](CO)NC(=O)[C@H](C)NC(=O)[C@H](CC(=O)O)NC(=O)[C@H](CCCCN)NC(=O)CNC(=O)[C@@H]1CCCN1C(=O)[C@H](CCCCN)NC(=O)[C@H](CCC(=O)O)NC(=O)[C@@H]1CCCN1C(=O)[C@H](CCCCN)NC(=O)[C@@H]1CCCN1)C(=O)N[C@@H](CCCNC(=N)N)C(=O)N[C@@H](Cc1c[nH]cn1)C(=O)N[C@@H](Cc1ccc(O)cc1)C(=O)N[C@@H](CC(C)C)C(=O)N[C@@H](CC(N)=O)C(=O)N[C@@H](Cc1c[nH]c2ccccc12)C(=O)N[C@@H](CC(C)C)C(=O)N[C@H](C(=O)N[C@@H](CCCNC(=N)N)C(=O)N[C@@H](CCC(N)=O)C(=O)N[C@@H](CCCNC(=N)N)C(=O)N[C@@H](Cc1ccccc1)C(N)=O)[C@@H](C)O [Compound A70] (H-PKPEKPGKDASPK([γGlu-γGlu-C20 diacid])EWNRYYKDLRHYLNWLTRQRF-NH2; N-terminus assumed) |  | 0.0398 nM | 2 nM |
